Data taken from patent publication US20250179057A1, “MEK IMMUNE ONCOLOGY INHIBITORS AND THERAPEUTIC USES THEREOF” (Immuneering Corporation, priority 2022, published 2025).
Where “and” joins values, the source holds several entries; their conditions need not be identical. Equal values may be shown once.

System: phospho-ERK in A549 (KRAS G12S) cells
Assay: Cell-based pERK (pERK:tERK) in A549 cells
Set-up: A549-pERK 10 uM, 2 h: unit not given here
Details: for A549-pERK (10 nM, 2 h): phospho- to total protein ratio normalized to DMSO control (Table 9); for A549-pERK 10 uM, 2 h: phospho- to total protein ratio normalized to DMSO control
Procedure: Media components, reagents and buffers for Western Blot: All cell culture media components were obtained from ThermoFisher Scientific. […] Laemmli sample loading 4× buffer (ThermoFisher Scientific, Cat No. NP0007). MOPS/SDS electrophoresis running buffer (GenScript, Cat No. M00138).
Subculture conditions: Adherent cells were grown to approximately 90% confluency, culture medium was aspirated and the cell layer was rinsed with PBS. […] Eight mL media was added, cells were spun down at 1000×g for 5 minutes. Cell pellet was re-suspended in 10 mL media and an appropriate volume was inoculated into a new culture flask.
Compound (drug) treatment: Cells were plated in a 6-well plate at a density of 250,000-300,000 cells/well in 3 mL media and incubated 37° C. in a humidified, 5% CO2 incubator. […] These solutions were added to the cells (3 uL/well), mixed by swirling the plate, and incubated at 37° C. in a humidified, 5% CO2 incubator for 2 hours.
Cell lysis and protein estimation: Cells were washed with PBS, and scraped in 50 μL of lysis buffer containing protease and phosphatase inhibitors. Cell lysates were stored at −20° C. Cell lysates were thawed and spun at 12,000 rpm for one minute, 3 ul of the supernatant was added to 500 μL of Coomassie blue reagent following by 500 μL of water. […] Protein standards were used (0-20 mg/mL) to calculate protein concentrations of test samples.
All samples were heated at 95° C. for 5 minutes, cooled to room temperature and spun down. […] After the run, gel was removed and protein transfer was done using iBlot for 7 minutes, as per manufacturer's recommendations. After the transfer, nitrocellulose membrane was incubated on a shaker in 5 mL of blocking buffer at room temperature for 1 hr. The blot was then incubated overnight on a shaker in 5 ml of blocking buffer containing 0.2% Tween-20 and primary antibody, at room temperature. Anti-phospho-STAT3 antibody was used at a dilution of 1:500, the other 3 primary antibodies were used at a dilution of 1:1000.
Next day, the blot was washed 3 times for 10 min each with 10 mL of TBST followed by incubation on a shaker in 5 ml of blocking buffer containing 0.2% Tween-20 and 0.5 ul of the IRDye labeled secondary antibodies, diluted 1:10000, at room temperature for 1 hr. The blot was then washed 3 times for 10 min each with 10 mL of TBST and dried between sheets of paper towels. Imaging was done using LICOR's Odyssey imaging system, quantitation was done using their software, Image Studio version 3.1.
Materials and Methods: A549 or A375 cells were seeded in 6-well plates at an appropriate seeding density on day 0. On day 2 or 3, after checking the health and confluency of cells, the media was aspirated and replaced with 1 mL media containing a predetermined concentration of compound and incubated for 2 hours. After 2 hours, the media was aspirated, and the cells washed 2 times with cold PBS. Cells were lysed on ice, with 50 uL 1×CST lysis buffer +1 mM PMSF for 5 minutes. After 5 minutes, cells were removed using a scraper and transferred to cold 1.5 mL tubes, and centrifuged for 10 min, 4° C., 14,000×g. Supernatant was gently removed and snap frozen in liquid nitrogen. Protein concentration of the lysate was determined using Bradford Reagent (analyzed using SpectraMax M2E) and diluted to 1 mg/mL or pERK or 1.5 mg/mL for pMEK analysis. […] All dilutions were in Milk-free antibody diluent.
They were grown in T75 flasks in DMEM containing 10% FBS and Pen-Strep. at 37° C. in a humidified, 5% CO2 incubator. The adherent cells were grown to about 90% confluency, culture medium was aspirated, and the cell layer was rinsed with PBS. […] Eight mL media was added, cells were spun down at 1000 g for 5 minutes. Cell pellet was re-suspended in 10 mL media and an appropriate volume was inoculated into a new culture flask. Cells were plated in a 6-well plate at a density of 250,000-300,000 cells/well in 3 mL media and incubated 37° C. in a humidified, 5% CO2 incubator.

| SMILES | A549-pERK (10 nM, 2 h) | A549-pERK 10 uM, 2 h | pERK:tERK (10 nM 2 h A549) (Phospho-ERK Screen in A549 (KRAS G12S), head 10 nM 2 h, title 10 μM for 2 hours) |
| --- | --- | --- | --- |
| CNS(=O)(=O)Nc1cccc(Cc2c(CN(C)c3ccccc3Cl)c3ccc(OC(=O)N(C)C)cc3oc2=O)c1F [Compound 99] | 98.9 | – | – |
| CNS(=O)(=O)Nc1cccc(Cc2c(CO)c3ccc(OC(=O)N(C)C)cc3oc2=O)c1F [Compound 180] | 75 | – | – |
| CNS(=O)(=O)Nc1cccc(Cc2c(CN3CCOCC3=O)c3ccc(OC(=O)N(C)C)cc3oc2=O)c1F [Compound 181] | 100 | 22.23 | – |
| CNS(=O)(=O)Nc1cccc(Cc2c(CNCC(=O)N3CCNCC3)c3ccc(OC(=O)N(C)C)cc3oc2=O)c1F [Compound 191] | 131 | 8.6 | – |
| CNS(=O)(=O)Nc1cccc(Cc2c(CN3CCN(C)CC3)c3ccc(OC(=O)N(C)C)cc3oc2=O)c1F [Compound 15] | 73.8 | – | – |
| CNS(=O)(=O)Nc1cccc(Cc2c(CN3CC(Cl)C3)c3ccc(OC(=O)N(C)C)cc3oc2=O)c1F [Compound 145] | 104 | – | – |
| CNS(=O)(=O)Nc1cccc(Cc2c(CNC(=O)c3c[nH]nn3)c3ccc(OC(=O)N(C)C)cc3oc2=O)c1F [Compound 211] | 121 | 70.75 | – |
| CNS(=O)(=O)Nc1cccc(Cc2c(CNCC(=O)O)c3cc(Cl)c(OC(=O)N(C)C)cc3oc2=O)c1F [Compound 133] | 88.1 | 23.41 | – |
| CNS(=O)(=O)Nc1cccc(Cc2c(CNCC3CC3)c3ccc(OC(=O)N(C)C)cc3oc2=O)c1F [Compound 26] | 94.2 | – | – |
| CNS(=O)(=O)Nc1cccc(Cc2c(CNC(=O)C(C)C)c3ccc(OC(=O)N(C)C)cc3oc2=O)c1F [Compound 208] | 105 | 23.64 | – |
| CNS(=O)(=O)Nc1cccc(Cc2c(CNCC(=O)Nc3ccccc3)c3ccc(OC(=O)N(C)C)cc3oc2=O)c1F [Compound 223] | 119 | 3.04 | – |
| CNS(=O)(=O)Nc1cccc(Cc2c(CN3CC4CC3CN4)c3ccc(OC(=O)N(C)C)cc3oc2=O)c1F (stereo not drawn) [Compound 138] | 96.9 | – | – |
| CNS(=O)(=O)Nc1cccc(Cc2c(CC(=O)N3CCN(C)CC3)c3ccc(OC(=O)N(C)C)cc3oc2=O)c1F [Compound 195] | 113 | – | – |
| CNS(=O)(=O)Nc1cccc(Cc2c(CCNCC3CC3)c3ccc(OC(=O)N(C)C)cc3oc2=O)c1F [Compound 186] | 80.1 | 0.74 | – |
| CNS(=O)(=O)Nc1cccc(Cc2c(CN3CCN(Cc4ccccc4)CC3)c3ccc(OC(=O)N(C)C)cc3oc2=O)c1F [Compound 16] | 91.6 | – | – |
| CNS(=O)(=O)Nc1cccc(Cc2c(CN3CC(N(C)C)C3)c3ccc(OC(=O)N(C)C)cc3oc2=O)c1F [Compound 154] | 64 | – | – |
| CNS(=O)(=O)Nc1cccc(Cc2c(CN3CC(N)C3)c3ccc(OC(=O)N(C)C)cc3oc2=O)c1F [Compound 165] | 104 | – | – |
| CNS(=O)(=O)Nc1cccc(Cc2c(CNCCC(F)(F)F)c3ccc(OC(=O)N(C)C)cc3oc2=O)c1F [Compound 66] | 104 | – | – |
| CNS(=O)(=O)Nc1cccc(Cc2c(CN(C)C)c3ccc(Oc4ncccn4)cc3oc2=O)c1F [Compound 129] | 92.2 | – | – |
| CNS(=O)(=O)Nc1cccc(Cc2c(CC(=O)N3CC(OC)C3)c3ccc(OC(=O)N(C)C)cc3oc2=O)c1F [Compound 216] | 89.5 | 4.51 | – |
| CNS(=O)(=O)Nc1cccc(Cc2c(CNC(=O)C(C)(C)O)c3ccc(OC(=O)N(C)C)cc3oc2=O)c1F [Compound 212] | 100 | 13.03 | – |
| CNS(=O)(=O)Nc1cccc(Cc2c(CC(=O)N(C)CC#N)c3ccc(OC(=O)N(C)C)cc3oc2=O)c1F [Compound 198] | 109 | – | – |

| SMILES | A549-pERK (10 nM, 2 h) | A549-pERK 10 uM, 2 h | pERK:tERK (10 nM 2 h A549) (Phospho-ERK Screen in A549 (KRAS G12S), head 10 nM 2 h, title 10 μM for 2 hours) |
| --- | --- | --- | --- |
| CNS(=O)(=O)Nc1nccc(Cc2c(CN3CC(F)(F)C3)c3ccc(OC(=O)N(C)C)cc3oc2=O)c1F [Compound 149] | 69.1 | – | – |
| CNS(=O)(=O)Nc1cccc(Cc2c(CC(=O)Nc3ccn[nH]3)c3ccc(OC(=O)N(C)C)cc3oc2=O)c1F [Compound 202] | 119 | – | – |
| CNS(=O)(=O)Nc1cccc(Cc2c(CNC(=O)OCCO)c3ccc(OC(=O)N(C)C)cc3oc2=O)c1F [Compound 106] | – | 27.88 | – |
| CNS(=O)(=O)Nc1cccc(Cc2c(CNc3ccn(C)n3)c3ccc(OC(=O)N(C)C)cc3oc2=O)c1F [Compound 89] | 83.7 | – | – |
| CNS(=O)(=O)Nc1cccc(Cc2c(CNc3cn[nH]c3)c3ccc(OC(=O)N(C)C)cc3oc2=O)c1F [Compound 92] | 93.8 | – | – |
| CNS(=O)(=O)Nc1cccc(Cc2c(CNc3ccn[nH]3)c3ccc(OC(=O)N(C)C)cc3oc2=O)c1F [Compound 31] | 66.7 | – | – |
| CNS(=O)(=O)Nc1cccc(Cc2c(CN3CCN(S(C)(=O)=O)CC3)c3ccc(OC(=O)N(C)C)cc3oc2=O)c1F [Compound 68] | 68.9 | – | – |
| CNS(=O)(=O)Nc1cccc(Cc2c(CN3CCN(C4CC4)CC3)c3ccc(OC(=O)N(C)C)cc3oc2=O)c1F [Compound 64] | 73 | – | – |
| CCN(C)Cc1c(Cc2cccc(NS(=O)(=O)NC)c2F)c(=O)oc2cc(OC(=O)N(C)C)c(F)cc12 [Compound 261, 4-((ethyl(methyl)amino)methyl)-6-fluoro-3-(2-fluoro-3-((N-methylsulfamoyl)amino)benzyl)-2-oxo-2H-chromen-7-yl dimethylcarbamate] | – | – | 68 |
| CNS(=O)(=O)Nc1cccc(Cc2c(CN(C)C)c3ccc(OC(=O)N4CCN(C)CC4)cc3oc2=O)c1F [Compound 127] | 110 | – | – |
| CNS(=O)(=O)Nc1cccc(Cc2c(CNCCN(C)C)c3ccc(OC(=O)N(C)C)cc3oc2=O)c1F [Compound 58] | 98.7 and 108 | – | – |
| CNS(=O)(=O)Nc1cccc(Cc2c(CN3CCN(C(=O)c4ccccc4)CC3)c3ccc(OC(=O)N(C)C)cc3oc2=O)c1F [Compound 65] | 100 | – | – |
| CNS(=O)(=O)Nc1cccc(Cc2c(CNC(=O)c3nn[nH]n3)c3ccc(OC(=O)N(C)C)cc3oc2=O)c1F [Compound 213] | 100 | 70.14 | – |
| CNS(=O)(=O)Nc1cccc(Cc2c(CNCc3ccncc3)c3ccc(OC(=O)N(C)C)cc3oc2=O)c1F [Compound 29] | 96 | – | – |
| CNS(=O)(=O)Nc1cccc(Cc2c(CNCCCCO)c3ccc(OC(=O)N(C)C)cc3oc2=O)c1F [Compound 71] | 99.4 | – | – |
| CNS(=O)(=O)Nc1cccc(Cc2c(CNCc3ccco3)c3ccc(OC(=O)N(C)C)cc3oc2=O)c1F [Compound 56] | 92.9 | – | – |
| CNS(=O)(=O)Nc1cccc(Cc2c(CNc3ccnn3C)c3ccc(OC(=O)N(C)C)cc3oc2=O)c1F [Compound 96] | 102 | – | – |
| CCC(=O)NCc1c(Cc2cccc(NS(=O)(=O)NC)c2F)c(=O)oc2cc(OC(=O)N(C)C)ccc12 [Compound 207] | 97.4 | 11.35 | – |
| CNS(=O)(=O)Nc1cccc(Cc2c(CN3CC(C)(C)C3)c3ccc(OC(=O)N(C)C)cc3oc2=O)c1F [Compound 143] | 104 | – | – |
| CNS(=O)(=O)Nc1cccc(Cc2c(CN3CC(C)C3)c3ccc(OC(=O)N(C)C)cc3oc2=O)c1F [Compound 142] | 94.6 | – | – |
| CNS(=O)(=O)Nc1cccc(Cc2c(CN3CC4(COC4)C3)c3ccc(OC(=O)N(C)C)cc3oc2=O)c1F [Compound 152] | 70.5 | – | – |
